From US20250099530A1, “COMPOUND FOR USE IN PREVENTING AND/OR TREATING AN INFECTION CAUSED BY SARS-COV-2” (priority 2022, published 2025)
“Also recorded” adds a separate entry of the source.

Experiments:
SIV = conditions: SIV-infected rhesus macaques; cited from earlier work
HIV = conditions: cited from earlier work
caspase = conditions: cited from earlier work
SARS-CoV-2 [1] = experiment: Intracellular qRT-PCR of SARS-CoV-2 S, N and NSP6 genes in infected cells, full treatment; assay type: cell-based, SARS-CoV-2 strain BetaCoV/France/IDF0372/2020; conditions: 72 h post-infection, normalized to GAPDH
SARS-CoV-2 [2] = experiment: Antiviral activity, full treatment: Spike staining by flow cytometry and western blot of S and N proteins in infected cells; assay type: cell-based, SARS-CoV-2 strain BetaCoV/France/IDF0372/2020
Procedure: A) Vero E6/TMPRSS2 cells non infected or infected with the SARS-CoV-2 at MOI 0.05 were incubated with different concentrations of QVDM-OPh (10, 25, 50, 100 μM), Vx765 (25 μM) or Remdesivir (10 μM) for 1 h, before the infection. Afterwards, the cells were cultured with drug-containing medium until the end of the experiment (Full treatment) without removing the virus from the culture. After 72 h post-infection, cells were collected and stained for mortality and infection rate analysis. The % of infection is represented in each plot of analysis.
B) Results represent the % of infection detected by the Spike protein staining in the different infected and treated cells compared to the infected untreated group. Results represent mean+/−SD of 4 independent experiments with 3 independent points for each condition separately. Statistical significance was assessed applying One-way ANOVA test followed by Dunnett's post-hoc test using GraphPad Prism software (GraphPad Software Inc., USA). (****P<0.0001).
A-B) Vero E6/TMRPSS2 cells were pre-treated with QVDM-OPh peptide or Remdesivir at the indicated concentrations for 1 h, before the infection with the virus at MOI=0.05. Afterwards, the cells were cultured with drug-containing medium until the end of the experiment (Full treatment). A well with non-infected cells was performed as a negative control of the infection. At 72 h post-infection, cells were lysed by RIPA buffer and western blot analysis was performed to detect the expression of the Spike protein (S), the full length and S1 domain, and the Nucleocapsid protein (N). GAPDH was used as loading control. Results represent mean±SD, from 4 independent experiments with 3 independent points per condition.
To evaluate the toxicity of the QVDM-OPh on Vero E6 Cells and the antiviral efficacy, the percentage of mortality and the percentage of infected cells were measured by flow cytometry. Cells were cultured overnight in 24-well cell-culture petri-dish with a density of 75×10^4 cells/well. The next day, cells were pretreated or not for 1 h with the different doses of the indicated QVDM-OPh, Vx765 or Remdesivir at different concentrations. Then, the virus was subsequently added at MOI 0.05 to allow infection for 2 h in 250 μl/well. Afterwards, complete media was added to cell culture to a final volume of 500 μl/well. Drugs were added each day at same concentration to cell culture. At 72 h post-infection, the cell supernatant was collected and frozen immediately at −80° C. for viral extraction and qRT-PCR amplification. The cells were collected and a part thereof was used to flow cytometry analysis to measure the rate of infection using an intracellular staining against Spike protein (SARS-CoV-2 Spike Protein-Alexa 647, Cat no. 51-6490-82, eBioscience) and a Cytofix/cytoperm fixation permeabilization kit (Cat no. 554714, BD) according to the manufacturer's instructions. Toxicity was analysed using Viability 405/452 Fixable Dye (Cat no. 130-109-814, from Miltenyi Biotec) according to the manufacturer's instructions. […] After the staining, the cells were fixed with 2% Paraformaldehyde (FPA) and then analyzed on a Fortessa Flow Cytometer. 30 000 events were recorded for each condition in triplicate. […] The other part of the cells was lysed in RIPA lysis buffer (Invitrogen, Cat no. 10230544) containing protease (Roche) and phosphatase inhibitors (Invitrogen) for further quantification and immunoblotting analysis, or in LBP buffer for RNA purification and RT-qPCR analysis. […]

SARS-CoV-2 [3] = experiment: COVID-19 golden Syrian hamster model; assay type: in vivo; conditions: for viral replication decrease in the lungs compared to vehicle / viral load and viral replication in the lungs: 10 mg/kg IP on Day 0 (t+1 h) and Day 1, lungs at 2 dpi; for viral load and viral replication in the lungs: versus untreated groups; for clinical scores and body weight change vs Day 0: 10 mg/kg IP on Day 0 (t+1 h) and Day 1, versus infected untreated group
SARS-CoV-2 [4] = experiment: Virus yield in infected cell supernatants by qRT-PCR (N and NSP6 genes); assay type: cell-based, SARS-CoV-2 strain BetaCoV/France/IDF0372/2020
SARS-CoV-2 [5] = conditions: cited from earlier work
[6] = Severe acute respiratory syndrome coronavirus 2, 72 h, read-out: inhibition of the viral replication
[7] = full treatment, 72 h post-infection

Structure (SMILES)	AIDS disease progression (SIV)	HIV viral replication (HIV)	caspase inhibitory activity (caspase)	relative expression of the Spike, Nucleocapsid and NSP6 genes inside the cells (SARS-CoV-2 [1])	toxicity (Vero E6/TMPRSS2 cells; 25 μM and 50 μM)	toxicity effect on Vero E6/TMPRSS2 cells (Vero E6/TMPRSS2 cells; different concentrations (25, 50, 100 μM each day), cells infected or not at MOI 0.05, 72 h post-infection)	control of SARS-CoV-2 infection in vitro (SARS-CoV-2 [2]; 25 μM and 50 μM)	inhibition at 10 µM (SARS-CoV-2 [2]; [6])	inhibition at 25 µM (SARS-CoV-2 [2]; [6])	inhibition at 50 µM (SARS-CoV-2 [2]; [6])	reduction of viral replication compared with Remdesivir (SARS-CoV-2 [2]; [7])	viral replication decrease in the lungs compared to vehicle (SARS-CoV-2 [3])	viral load and viral replication in the lungs (SARS-CoV-2 [3])	clinical scores and body weight change vs Day 0 (SARS-CoV-2 [3])	SARS-CoV-2 in the supernatant (N and NSP6 gene qRT-PCR) (SARS-CoV-2 [4]; [7])	inhibition of secretion/production of the virus from the cell to the media, compared with QVD-OPh (SARS-CoV-2 [4]; identical concentration, full treatment and post-entry (FIGS. 5 and 9))	control of an in vitro infection caused by SARS-CoV-2 (SARS-CoV-2 [5])	toxicity (SARS-CoV-2 [5]; in vitro)
CC(C)C(NC(=O)c1ccc2ccccc2n1)C(=O)NC(CC(=O)O)C(=O)COc1c(F)cccc1F (stereo not shown) [QVD-OPh]	AIDS disease progression is prevented	inhibits also the viral replication; also recorded: same anti-viral effect	broad caspase inhibitor	–	–	–	–	–	–	–	–	–	–	–	–	–	–	–
COC(=O)CC(NC(=O)C(NC(=O)c1ccc2ccccc2n1)C(C)C)C(=O)COc1c(F)cccc1F (stereo not shown) [QVDM-OPh]	–	same anti-viral effect	pan-caspase inhibitor	reduce significantly	without any toxicity	no toxicity effect	highly effective	~50%	~70%	~99%	comparable	70%	significant reduction	encouraging results	significantly reduce	more efficiently than QVD-OPh	–	–
CC(C)C(NC(=O)c1ccc2ccccc2n1)C(=O)NC(CCC(=O)O)C(=O)COc1c(F)cccc1F (stereo not shown) [QVE-OPh]	–	same anti-viral effect	no caspase inhibitory activity	–	–	–	–	–	–	–	–	52%	significant reduction	encouraging results	–	–	highly effective	without any toxicity
